# How the values were obtained:
# giant foxtail = assay: Test A pre-/postemergence herbicide test; format: in vivo, Setaria faberii
# In short: (§1)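 Approximately 10 days after treatment in the greenhouse, plants were compared with untreated controls and given a 0–100 visual injury rating. Applications: preemergence directed soil spray; postemergence on 2–10 cm plants at the one- to two-leaf stage.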
# wheat = assay: Test A pre-/postemergence herbicide test; format: in vivo, Triticum aestivum; conditions: Postemergence
# In short: as §1
# corn [1] = assay: Test A pre-/postemergence herbicide test; format: in vivo, Zea mays; conditions: Postemergence
# In short: as §1
# sedge, umbrella = assay: Test B flooded paddy test; format: in vivo, Cyperus difformis; conditions: 500 g ai/ha, Flood; scale of 0 to 100 where 0 is no effect and 100 is complete control
# In short: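 Visual ratings from 0, meaning no effect, up to 100, meaning complete control, were made by comparison with untreated controls 13 to 15 days after treatment. Test compounds went straight into floodwater standing 3 cm over the soil of pots holding 2-leaf seedlings.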
# blackgrass = assay: Test C pre-/postemergence herbicide test; format: in vivo, Alopecurus myosuroides
# In short: (§2)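 Plants grown and held in a greenhouse for 13 to 15 days post-spray, then rated 0–100 by visual comparison with controls. Pre treatments targeted seeds in loam and sand; post treatments targeted 1- to 4-leaf plants in peat-based potting medium.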
# galium = assay: Test C pre-/postemergence herbicide test; format: in vivo, Galium aparine; conditions: Preemergence; for Plant response rating, Galium: 125 g ai/ha; for Plant response rating (scale of 0 to 100), Galium: 250 g ai/ha
# In short: as §2
# corn [2] = assay: Test C pre-/postemergence herbicide test; format: in vivo, Zea mays
# In short: as §2
# foxtail, giant = assay: Test C pre-/postemergence herbicide test; format: in vivo, Setaria faberii
# In short: as §2
# johnsongrass = assay: Test C pre-/postemergence herbicide test; format: in vivo, Sorghum halepense
# In short: as §2
# ragweed = assay: Test C pre-/postemergence herbicide test; format: in vivo, Ambrosia elatior
# In short: as §2
# oilseed rape = assay: Test C pre-/postemergence herbicide test; format: in vivo, Brassica napus
# In short: as §2
# [3] = Postemergence, 125 g ai/ha, visual rating on 0 to 100 scale (0 no effect, 100 complete control), approx. 10 days
# [4] = Postemergence, 500 g ai/ha, 0 to 100 scale (0 no effect, 100 complete control)
# [5] = Preemergence, 125 g ai/ha, 0 to 100 scale where 0 is no effect and 100 is complete control
# [6] = Preemergence, 500 g ai/ha, visual rating on 0 to 100 scale (0 no effect, 100 complete control)
# [7] = 125 g ai/ha, visual rating on 0 to 100 scale (0 no effect, 100 complete control), approx. 10 days
# [8] = 500 g ai/ha, 0 to 100 scale (0 no effect, 100 complete control)
# [9] = Postemergence, 31 g ai/ha, scale 0 to 100 (0 no effect, 100 complete control)
# [10] = Postemergence, 62 g ai/ha, scale 0 (no effect) to 100 (complete control)
# [11] = Postemergence, 125 g ai/ha, scale 0 to 100 (0 no effect, 100 complete control)
# [12] = Postemergence, 250 g ai/ha, scale 0 to 100 (0 no effect, 100 complete control)
# [13] = Preemergence, 31 g ai/ha, scale 0 to 100, 0 is no effect and 100 is complete control
# [14] = Preemergence, 62 g ai/ha, scale 0 to 100 (0 no effect, 100 complete control)
# [15] = Preemergence, 125 g ai/ha, scale 0 to 100 (0 no effect, 100 complete control)
# [16] = 31 g ai/ha, scale 0 to 100, 0 is no effect and 100 is complete control
# [17] = 62 g ai/ha, scale 0 to 100 (0 no effect, 100 complete control)
# [18] = scale 0 to 100 (0 no effect, 100 complete control)
compound,measurement,setting,value
CN1CC(c2ccc(F)c(F)c2)C(C(=O)Nc2cccc(F)c2F)C1=O (stereo not shown) [Compound 303],"Plant response rating, Foxtail, Giant",giant foxtail; [3],80
same,"Plant response rating, Foxtail, Giant",giant foxtail; [4],80
same,"Plant response rating, Foxtail, Giant",giant foxtail; [5],90
same,"Foxtail, Giant plant response rating",giant foxtail; [6],90
same,"Plant response rating, Wheat",wheat; [7],50
same,"Plant response rating, Wheat",wheat; [8],60
same,"Plant response rating, Corn",corn [1]; [7],50
same,"Plant response rating, Corn",corn [1]; [8],70
same,"Plant response rating, Sedge, Umbrella","sedge, umbrella",0
same,"Plant response rating, Blackgrass",blackgrass; [9],0
same,"Plant response rating, Blackgrass",blackgrass; [10],0
same,"Plant response rating, Blackgrass",blackgrass; [11],0
same,"Plant response rating, Blackgrass",blackgrass; [12],0
same,Blackgrass plant response rating,blackgrass; [13],0
same,Blackgrass plant response rating,blackgrass; [14],40
same,"Plant response rating, Blackgrass",blackgrass; [15],80
same,"Plant response rating (scale of 0 to 100), Blackgrass","blackgrass; Preemergence, 250 g ai/ha",90
same,Galium plant response rating,galium; [16],90
same,Galium plant response rating,galium; [17],0
same,"Plant response rating, Galium",galium; [18],85
same,"Plant response rating (scale of 0 to 100), Galium",galium,85
same,"Plant response rating, Corn",corn [2]; [9],0
same,"Plant response rating, Corn",corn [2]; [10],0
same,"Plant response rating, Corn",corn [2]; [11],0
same,"Plant response rating, Corn",corn [2]; [12],15
same,Corn plant response rating,corn [2]; [13],10
same,Corn plant response rating,corn [2]; [14],20
same,"Plant response rating, Corn",corn [2]; [15],35
same,"Plant response rating (scale of 0 to 100), Corn","corn [2]; Preemergence, 250 g ai/ha",45
same,"Plant response rating, Foxtail, Giant","foxtail, giant; [10]",80
same,"Plant response rating, Foxtail, Giant","foxtail, giant; [11]",85
same,"Plant response rating, Foxtail, Giant","foxtail, giant; [12]",90
same,"Foxtail, Giant plant response rating","foxtail, giant; [13]",90
same,"Foxtail, Giant plant response rating","foxtail, giant; [14]",95
same,"Plant response rating, Foxtail, Giant","foxtail, giant; [15]",98
same,"Plant response rating (scale of 0 to 100), Foxtail, Giant","foxtail, giant; Preemergence, 250 g ai/ha",100
same,"Plant response rating, Johnsongrass",johnsongrass; [9],0
same,"Plant response rating, Johnsongrass",johnsongrass; [10],0
same,"Plant response rating, Johnsongrass",johnsongrass; [11],0
same,"Plant response rating, Johnsongrass",johnsongrass; [12],5
same,Johnsongrass plant response rating,johnsongrass; [13],0
same,Johnsongrass plant response rating,johnsongrass; [14],55
same,"Plant response rating, Johnsongrass",johnsongrass; [15],65
same,"Plant response rating (scale of 0 to 100), Johnsongrass","johnsongrass; Preemergence, 250 g ai/ha",80
same,"Plant response rating, Ragweed",ragweed; [9],0
same,"Plant response rating, Ragweed",ragweed; [10],0
same,"Plant response rating, Ragweed",ragweed; [11],40
same,"Plant response rating, Ragweed",ragweed; [12],55
same,Ragweed plant response rating,ragweed; [13],5
same,Ragweed plant response rating,ragweed; [14],70
same,"Plant response rating, Ragweed",ragweed; [15],75
same,"Plant response rating (scale of 0 to 100), Ragweed","ragweed; Preemergence, 250 g ai/ha",80
same,"Plant response rating, Oilseed Rape",oilseed rape; [9],0
same,"Plant response rating, Oilseed Rape",oilseed rape; [10],0
same,"Plant response rating, Oilseed Rape",oilseed rape; [11],0
same,"Plant response rating, Oilseed Rape",oilseed rape; [12],30
same,Oilseed Rape plant response rating,oilseed rape; [13],0
same,Oilseed Rape plant response rating,oilseed rape; [14],35
same,"Plant response rating, Oilseed Rape",oilseed rape; [15],80
same,"Plant response rating (scale of 0 to 100), Oilseed Rape","oilseed rape; Preemergence, 250 g ai/ha",85
CN1CC(c2cccc(C(F)(F)F)c2)C(C(=O)Nc2cccc(F)c2F)C1=O (stereo not shown) [Compound 305],"Plant response rating, Foxtail, Giant",giant foxtail; [3],80
same,"Plant response rating, Foxtail, Giant",giant foxtail; [4],80
same,"Plant response rating, Foxtail, Giant",giant foxtail; [5],90
same,"Foxtail, Giant plant response rating",giant foxtail; [6],90
same,"Plant response rating, Wheat",wheat; [7],60
same,"Plant response rating, Wheat",wheat; [8],70
same,"Plant response rating, Corn",corn [1]; [7],70
same,"Plant response rating, Corn",corn [1]; [8],70
same,"Plant response rating, Sedge, Umbrella","sedge, umbrella",0
same,"Plant response rating, Blackgrass",blackgrass; [9],0
same,"Plant response rating, Blackgrass",blackgrass; [10],0
same,"Plant response rating, Blackgrass",blackgrass; [11],30
same,"Plant response rating, Blackgrass",blackgrass; [12],10
same,Blackgrass plant response rating,blackgrass; [13],60
same,Blackgrass plant response rating,blackgrass; [14],75
same,"Plant response rating, Blackgrass",blackgrass; [15],70
same,"Plant response rating (scale of 0 to 100), Blackgrass","blackgrass; Preemergence, 250 g ai/ha",90
same,Galium plant response rating,galium; [16],80
same,Galium plant response rating,galium; [17],80
same,"Plant response rating, Galium",galium; [18],90
same,"Plant response rating (scale of 0 to 100), Galium",galium,90
same,"Plant response rating, Corn",corn [2]; [9],0
same,"Plant response rating, Corn",corn [2]; [10],5
same,"Plant response rating, Corn",corn [2]; [11],40
same,"Plant response rating, Corn",corn [2]; [12],45
same,Corn plant response rating,corn [2]; [13],65
same,Corn plant response rating,corn [2]; [14],75
same,"Plant response rating, Corn",corn [2]; [15],75
same,"Plant response rating (scale of 0 to 100), Corn","corn [2]; Preemergence, 250 g ai/ha",80
same,"Plant response rating, Foxtail, Giant","foxtail, giant; [9]",0
same,"Plant response rating, Foxtail, Giant","foxtail, giant; [10]",65
same,"Plant response rating, Foxtail, Giant","foxtail, giant; [11]",85
same,"Plant response rating, Foxtail, Giant","foxtail, giant; [12]",90
same,"Foxtail, Giant plant response rating","foxtail, giant; [13]",95
same,"Foxtail, Giant plant response rating","foxtail, giant; [14]",95
same,"Plant response rating, Foxtail, Giant","foxtail, giant; [15]",95
same,"Plant response rating (scale of 0 to 100), Foxtail, Giant","foxtail, giant; Preemergence, 250 g ai/ha",95
same,"Plant response rating, Johnsongrass",johnsongrass; [9],0
same,"Plant response rating, Johnsongrass",johnsongrass; [10],0
same,"Plant response rating, Johnsongrass",johnsongrass; [11],20
same,"Plant response rating, Johnsongrass",johnsongrass; [12],20
same,Johnsongrass plant response rating,johnsongrass; [13],80
same,Johnsongrass plant response rating,johnsongrass; [14],85
same,"Plant response rating, Johnsongrass",johnsongrass; [15],90
same,"Plant response rating (scale of 0 to 100), Johnsongrass","johnsongrass; Preemergence, 250 g ai/ha",90
same,"Plant response rating, Ragweed",ragweed; [9],0
same,"Plant response rating, Ragweed",ragweed; [10],0
same,"Plant response rating, Ragweed",ragweed; [11],40
same,"Plant response rating, Ragweed",ragweed; [12],45
same,Ragweed plant response rating,ragweed; [13],0
same,Ragweed plant response rating,ragweed; [14],15
same,"Plant response rating, Ragweed",ragweed; [15],35
same,"Plant response rating (scale of 0 to 100), Ragweed","ragweed; Preemergence, 250 g ai/ha",75
same,"Plant response rating, Oilseed Rape",oilseed rape; [9],0
same,"Plant response rating, Oilseed Rape",oilseed rape; [10],0
same,"Plant response rating, Oilseed Rape",oilseed rape; [11],0
same,"Plant response rating, Oilseed Rape",oilseed rape; [12],0
same,Oilseed Rape plant response rating,oilseed rape; [13],20
same,Oilseed Rape plant response rating,oilseed rape; [14],60
same,"Plant response rating, Oilseed Rape",oilseed rape; [15],80
same,"Plant response rating (scale of 0 to 100), Oilseed Rape","oilseed rape; Preemergence, 250 g ai/ha",90

# From patent US10294202B2, “Pyrrolidinones as herbicides” (FMC Corporation, priority 2013, dated 2019)
